Source: US20220313769A1, “NEW ANTIOXIDANT COMPOSITION FOR WOUND HEALING” (HISTOCELL, S.L., priority 2019, published 2022)

System: epithelial fibroblasts
Experiment: In vitro wound healing assay or scratch assay
Assay type: cell-based
Conditions: 0.001% lycopene compared to 5 mM NAC
Experimental: The in vitro wound healing assay or scratch assay measures the capacity of a product to stimulate cellular proliferation (epithelial fibroblasts or keratinocytes) and close a gash without cells in a cellular monolayer in the culture tissue. For the gash to be homogeneous in all the wells, the cells are seeded in wells containing silicone blocks of the same size, which prevent adhesion of the cells in the area occupied by the block. Thus, epithelial fibroblasts were seeded in 24-well plates with the silicone blocks or barriers. After incubating for 12 hours, the barriers were removed and the cells were incubated for 24-72 hours with medium that contained the components separately or combined [different concentrations of locust bean galactomannan (LBG, 0.2, 0.1 and 0.01%), lycopene (0.001%)] and acetylcysteine (NAC, 5 mM). The entire surface of the well covered by the cells or the number of cells was estimated based on the images obtained of the wells with different treatments.

SMILES: CC(C)=CCC/C(C)=C/C=C/C(C)=C/C=C/C(C)=C/C=C/C=C(C)/C=C/C=C(C)/C=C/C=C(\C)CCC=C(C)C [lycopene]
- Capacity of migration of the fibroblasts (FIG. 2B legend): higher capacity of migration
- In vitro healing (FIG. 2B): induced in vitro healing better
